The NIST ThermoML archive (doi:10.1016/j.jct.2012.09.012)

Test: xn = mol fraction of the nth substance listed
Conditions: Liquid, Vibrating tube method

CC1=CC[C@H]2C[C@@H]1C2(C)C [(S)-2-pinene] + C=C1CCC2CC1C2(C)C
mass density [kg/m3]
Conditions	x1 = 0.1044	x1 = 0.1926	x1 = 0.3036	x1 = 0.3949	x1 = 0.502	x1 = 0.6052	x1 = 0.7022	x1 = 0.7983	x1 = 0.9028	x1 = 1
283.15 K, 20000 kPa	890.1	889	887.9	886.9	885.7	884.7	883.4	882.3	881.1	880
283.15 K, 25000 kPa	893.1	891.9	890.9	889.9	888.7	887.8	886.6	885.4	884.3	883.2
283.15 K, 30000 kPa	896	894.8	893.7	892.9	891.6	890.7	889.3	888.5	887.4	886.3
283.15 K, 35000 kPa	898.9	897.7	896.7	895.8	894.7	893.7	892.5	891.6	890.3	889.4
283.15 K, 40000 kPa	901.7	900.6	899.4	898.6	897.5	896.6	895.3	894.6	893.5	892.5
298.15 K, 20000 kPa	879.6	878.2	876.9	875.8	874.6	873.4	872.3	871.2	870	868.8
298.15 K, 25000 kPa	882.5	881.3	880	879	877.8	876.7	875.6	874.5	873.3	872.1
298.15 K, 30000 kPa	885.3	884.2	883	882	880.8	879.7	878.8	877.6	876.4	875.3
298.15 K, 35000 kPa	888.3	887.3	886.1	885.1	884	882.9	882	880.8	879.7	878.6
298.15 K, 40000 kPa	891.1	890.2	889.1	888	887.1	886	885.1	884	882.9	881.9
313.15 K, 20000 kPa	868	867	865.9	864.9	863.6	862.6	861.4	860.3	859	858
313.15 K, 25000 kPa	871.4	870.3	869.2	868.2	867	865.8	864.7	863.6	862.4	861.3
313.15 K, 30000 kPa	874.6	873.5	872.4	871.4	870.2	869.1	868	866.9	865.7	864.7
313.15 K, 35000 kPa	877.8	876.7	875.5	874.6	873.4	872.3	871.2	870.2	869.1	867.9
313.15 K, 40000 kPa	881.1	879.9	878.7	877.8	876.6	875.5	874.5	873.5	872.4	871.3
